Tests used:
[1] = molecular target: Cannabinoid receptor 1 (Homo sapiens, UniProt P21554); type: cell membranes, Membrane; settings: chem-1; also: in other assays of this panel Not Active means under 50% inhibition at 10 µM
[2] = molecular target: C-C chemokine receptor type 5 (Homo sapiens, UniProt P51681); type: cell membranes, Membrane; settings: hek293; also: in other assays of this panel Not Active means under 50% inhibition at 10 µM
[3] = molecular target: D(1A) dopamine receptor (Homo sapiens, UniProt P21728); experiment: DRUGMATRIX: Dopamine D1 radioligand binding (ligand: [3H] SCH-23390); type: cell membranes, CHO, Membrane; settings: Not Active = under 50% inhibition at 10 µM
Chain of D(1A) dopamine receptor (P21728 whole entry): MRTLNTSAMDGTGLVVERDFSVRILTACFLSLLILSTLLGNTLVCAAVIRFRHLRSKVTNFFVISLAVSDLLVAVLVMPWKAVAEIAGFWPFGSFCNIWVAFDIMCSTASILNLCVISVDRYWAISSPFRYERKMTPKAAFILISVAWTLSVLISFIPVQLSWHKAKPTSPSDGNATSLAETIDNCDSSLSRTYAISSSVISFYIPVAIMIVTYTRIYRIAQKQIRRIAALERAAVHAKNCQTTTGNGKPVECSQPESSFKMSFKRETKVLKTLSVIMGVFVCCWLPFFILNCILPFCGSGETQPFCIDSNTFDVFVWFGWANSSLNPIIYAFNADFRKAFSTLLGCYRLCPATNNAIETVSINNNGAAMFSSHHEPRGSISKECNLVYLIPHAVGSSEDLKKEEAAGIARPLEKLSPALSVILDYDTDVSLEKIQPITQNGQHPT

[4] = molecular target: T1, 3-hydroxy-3-methylglutaryl-coenzyme A reductase (Homo sapiens, UniProt P04035); set-up: species or system Escherichia coli;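 also: enzyme inhibition assay of HMG-CoA reductase using radiolabeled [14C]HMG-CoA as substrate; in other assays of this panel Not Active means under 50% inhibition at 10 µM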
T1 sequence (P04035 whole entry): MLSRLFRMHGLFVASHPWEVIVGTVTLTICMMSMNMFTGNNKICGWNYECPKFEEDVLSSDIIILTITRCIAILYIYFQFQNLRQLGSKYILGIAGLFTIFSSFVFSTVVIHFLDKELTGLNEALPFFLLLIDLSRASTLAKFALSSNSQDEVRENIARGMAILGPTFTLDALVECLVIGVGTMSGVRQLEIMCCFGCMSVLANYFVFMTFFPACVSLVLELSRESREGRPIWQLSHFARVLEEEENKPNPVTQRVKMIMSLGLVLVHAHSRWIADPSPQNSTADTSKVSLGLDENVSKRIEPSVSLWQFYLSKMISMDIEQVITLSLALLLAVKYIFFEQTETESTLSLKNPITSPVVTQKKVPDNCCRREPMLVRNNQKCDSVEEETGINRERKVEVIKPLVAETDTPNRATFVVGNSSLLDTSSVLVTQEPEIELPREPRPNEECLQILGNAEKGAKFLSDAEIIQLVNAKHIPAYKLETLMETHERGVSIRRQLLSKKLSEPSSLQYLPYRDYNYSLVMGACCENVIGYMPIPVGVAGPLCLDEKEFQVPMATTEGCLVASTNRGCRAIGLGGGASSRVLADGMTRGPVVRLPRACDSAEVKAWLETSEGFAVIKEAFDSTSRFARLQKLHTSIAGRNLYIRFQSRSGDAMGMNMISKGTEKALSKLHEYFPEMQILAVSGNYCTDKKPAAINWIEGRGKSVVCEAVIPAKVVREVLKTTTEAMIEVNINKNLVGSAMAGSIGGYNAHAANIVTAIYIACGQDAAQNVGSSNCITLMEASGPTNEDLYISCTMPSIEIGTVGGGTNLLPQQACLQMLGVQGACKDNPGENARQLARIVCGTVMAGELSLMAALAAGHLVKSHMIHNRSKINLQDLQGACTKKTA

[5] = molecular target: Insulin receptor (Rattus norvegicus, UniProt P15127); type: cell membranes, Wistar, Liver, Membrane; also: in other assays of this panel Not Active means under 50% inhibition at 10 µM
Chain of Insulin receptor (P15127 27-759 limits assumed): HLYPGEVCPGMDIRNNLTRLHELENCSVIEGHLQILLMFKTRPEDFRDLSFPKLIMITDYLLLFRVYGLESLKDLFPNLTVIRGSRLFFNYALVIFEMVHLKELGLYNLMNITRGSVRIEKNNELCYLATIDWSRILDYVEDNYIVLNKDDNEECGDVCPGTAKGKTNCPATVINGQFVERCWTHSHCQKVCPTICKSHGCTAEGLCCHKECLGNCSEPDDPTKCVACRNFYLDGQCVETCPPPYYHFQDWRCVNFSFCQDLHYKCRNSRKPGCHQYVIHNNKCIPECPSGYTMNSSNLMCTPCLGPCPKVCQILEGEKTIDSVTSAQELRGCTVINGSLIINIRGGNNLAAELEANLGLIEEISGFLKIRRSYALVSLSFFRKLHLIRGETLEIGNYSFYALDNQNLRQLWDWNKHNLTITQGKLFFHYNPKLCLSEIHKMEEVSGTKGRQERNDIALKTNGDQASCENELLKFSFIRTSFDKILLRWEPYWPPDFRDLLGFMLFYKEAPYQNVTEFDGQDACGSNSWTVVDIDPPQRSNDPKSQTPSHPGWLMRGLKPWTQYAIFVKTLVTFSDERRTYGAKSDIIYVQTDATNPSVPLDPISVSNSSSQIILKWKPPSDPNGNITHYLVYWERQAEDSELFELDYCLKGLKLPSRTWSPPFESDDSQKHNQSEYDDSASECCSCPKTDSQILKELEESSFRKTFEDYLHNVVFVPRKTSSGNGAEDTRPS
Chain of Insulin receptor (P15127 764-1383 limits assumed): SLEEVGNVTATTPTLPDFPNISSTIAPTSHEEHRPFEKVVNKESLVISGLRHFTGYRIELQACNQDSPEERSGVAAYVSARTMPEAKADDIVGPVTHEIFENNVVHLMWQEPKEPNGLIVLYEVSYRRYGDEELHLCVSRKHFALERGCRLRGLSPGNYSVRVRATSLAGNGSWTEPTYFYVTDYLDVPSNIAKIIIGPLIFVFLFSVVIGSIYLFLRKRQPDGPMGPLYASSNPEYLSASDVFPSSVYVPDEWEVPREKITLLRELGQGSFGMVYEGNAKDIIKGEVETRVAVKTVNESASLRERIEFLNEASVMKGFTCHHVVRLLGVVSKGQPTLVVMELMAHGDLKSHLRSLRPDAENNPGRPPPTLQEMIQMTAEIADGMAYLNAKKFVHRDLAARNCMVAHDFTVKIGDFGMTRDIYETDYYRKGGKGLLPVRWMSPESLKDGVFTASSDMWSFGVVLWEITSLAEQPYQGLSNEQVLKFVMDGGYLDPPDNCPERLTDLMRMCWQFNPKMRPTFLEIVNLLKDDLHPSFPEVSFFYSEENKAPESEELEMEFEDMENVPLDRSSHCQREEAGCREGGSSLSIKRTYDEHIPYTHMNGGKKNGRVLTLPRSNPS

[6] = DRUGMATRIX: Leukotriene, BLT (LTB4) radioligand binding (ligand: [3H]LTB4); type: cell membranes, Membrane; settings: u-937; Not Active = under 50% inhibition at 10 µM
[7] = molecular target: T2, Angiotensin-converting enzyme (Oryctolagus cuniculus, UniProt P12822); type: tissue-based, Lung
T2 sequence (P12822 whole entry): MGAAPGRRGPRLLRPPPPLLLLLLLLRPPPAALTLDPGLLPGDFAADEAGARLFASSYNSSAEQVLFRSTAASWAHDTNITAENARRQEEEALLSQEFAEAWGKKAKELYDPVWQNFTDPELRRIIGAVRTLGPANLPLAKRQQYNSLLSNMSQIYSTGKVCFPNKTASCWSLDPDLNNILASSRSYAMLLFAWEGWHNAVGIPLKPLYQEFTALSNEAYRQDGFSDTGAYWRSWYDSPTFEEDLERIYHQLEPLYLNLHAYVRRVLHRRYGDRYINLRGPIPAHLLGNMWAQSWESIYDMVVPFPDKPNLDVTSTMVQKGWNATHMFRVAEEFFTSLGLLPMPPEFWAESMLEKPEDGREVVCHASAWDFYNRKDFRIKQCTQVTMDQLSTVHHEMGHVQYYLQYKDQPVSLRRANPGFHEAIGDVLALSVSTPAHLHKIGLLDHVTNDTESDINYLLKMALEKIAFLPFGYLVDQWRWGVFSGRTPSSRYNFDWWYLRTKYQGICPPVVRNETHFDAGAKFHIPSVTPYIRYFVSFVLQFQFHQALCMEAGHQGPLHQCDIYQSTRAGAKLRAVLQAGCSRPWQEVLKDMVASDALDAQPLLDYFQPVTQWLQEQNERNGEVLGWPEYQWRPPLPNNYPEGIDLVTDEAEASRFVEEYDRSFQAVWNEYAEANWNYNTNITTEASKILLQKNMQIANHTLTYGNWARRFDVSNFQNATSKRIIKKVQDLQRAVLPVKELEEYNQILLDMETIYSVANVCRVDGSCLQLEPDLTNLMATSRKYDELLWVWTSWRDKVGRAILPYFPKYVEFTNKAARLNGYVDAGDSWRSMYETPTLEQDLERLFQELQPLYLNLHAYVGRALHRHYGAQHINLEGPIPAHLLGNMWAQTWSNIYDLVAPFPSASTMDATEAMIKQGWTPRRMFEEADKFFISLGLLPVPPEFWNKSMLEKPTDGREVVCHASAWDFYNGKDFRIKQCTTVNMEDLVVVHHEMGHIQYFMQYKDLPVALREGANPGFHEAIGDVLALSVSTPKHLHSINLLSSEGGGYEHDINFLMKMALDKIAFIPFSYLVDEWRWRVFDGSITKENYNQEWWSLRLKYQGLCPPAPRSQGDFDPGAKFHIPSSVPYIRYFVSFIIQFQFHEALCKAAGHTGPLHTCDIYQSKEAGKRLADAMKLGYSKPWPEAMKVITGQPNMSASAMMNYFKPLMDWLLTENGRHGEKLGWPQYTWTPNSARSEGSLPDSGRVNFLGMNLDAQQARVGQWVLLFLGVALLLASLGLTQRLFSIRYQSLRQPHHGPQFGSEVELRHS

[8] = molecular target: T3, Interstitial collagenase (Homo sapiens, UniProt P03956); experiment: biochemical; type: tissue-based, Rheumatoid synovial fibroblasts
T3 sequence (P03956 whole entry): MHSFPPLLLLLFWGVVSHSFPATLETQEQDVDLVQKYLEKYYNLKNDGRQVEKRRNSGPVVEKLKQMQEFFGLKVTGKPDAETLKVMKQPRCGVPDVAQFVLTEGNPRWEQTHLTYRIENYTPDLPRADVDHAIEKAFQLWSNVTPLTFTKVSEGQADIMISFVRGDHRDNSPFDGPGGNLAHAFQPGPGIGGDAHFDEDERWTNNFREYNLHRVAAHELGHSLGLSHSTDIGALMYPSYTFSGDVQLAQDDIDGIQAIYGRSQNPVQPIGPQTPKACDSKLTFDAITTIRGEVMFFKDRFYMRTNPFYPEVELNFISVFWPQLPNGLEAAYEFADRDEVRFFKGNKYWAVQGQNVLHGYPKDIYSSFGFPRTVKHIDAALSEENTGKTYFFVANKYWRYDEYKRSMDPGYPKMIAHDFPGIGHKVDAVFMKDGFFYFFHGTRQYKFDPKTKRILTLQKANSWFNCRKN

Chain of Cannabinoid receptor 1 (P21554 whole entry): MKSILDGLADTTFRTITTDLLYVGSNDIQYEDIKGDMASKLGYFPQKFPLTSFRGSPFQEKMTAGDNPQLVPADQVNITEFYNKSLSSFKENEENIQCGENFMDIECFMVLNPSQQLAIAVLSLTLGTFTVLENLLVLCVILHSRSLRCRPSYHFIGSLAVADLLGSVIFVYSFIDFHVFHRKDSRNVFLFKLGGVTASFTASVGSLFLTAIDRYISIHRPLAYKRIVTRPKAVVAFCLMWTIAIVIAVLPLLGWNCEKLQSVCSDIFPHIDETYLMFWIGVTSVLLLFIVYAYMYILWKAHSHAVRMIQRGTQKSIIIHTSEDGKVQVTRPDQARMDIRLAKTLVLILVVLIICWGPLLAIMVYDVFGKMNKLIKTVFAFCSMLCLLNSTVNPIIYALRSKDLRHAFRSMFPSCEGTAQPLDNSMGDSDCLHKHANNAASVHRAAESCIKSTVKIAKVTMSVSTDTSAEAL
Chain of C-C chemokine receptor type 5 (P51681 whole entry): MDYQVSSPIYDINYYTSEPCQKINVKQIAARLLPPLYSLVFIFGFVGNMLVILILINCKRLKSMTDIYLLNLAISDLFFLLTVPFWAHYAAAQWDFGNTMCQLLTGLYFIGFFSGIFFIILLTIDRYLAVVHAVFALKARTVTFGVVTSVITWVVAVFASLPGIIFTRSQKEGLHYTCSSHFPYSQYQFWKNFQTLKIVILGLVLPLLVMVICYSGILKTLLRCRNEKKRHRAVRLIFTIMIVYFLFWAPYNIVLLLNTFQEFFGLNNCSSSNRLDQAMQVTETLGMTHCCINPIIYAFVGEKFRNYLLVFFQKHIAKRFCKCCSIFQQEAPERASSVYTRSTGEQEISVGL

## COc1c(C)c2c(c(O)c1C/C=C(\C)CCC(=O)O)C(=O)OC2 [MYCOPHENOLIC ACID]
[1]
  IC50: Not Active
[2]
  IC50: Not Active
[3]; cho
  IC50: Not Active
[4]
  IC50: Not Active
[5]
  IC50: Not Active
[6]
  IC50: Not Active
  Ki: Not Active
[7]
  IC50: Not Active
[8]
  IC50: Not Active

## O=c1ncn2nc(Sc3ccc(F)cc3F)ccc2c1-c1c(Cl)cccc1Cl [NEFLAMAPIMOD]
[1]
  IC50: Not Active
[2]
  IC50: Not Active
[3]; cho
  IC50: Not Active
[4]
  IC50: Not Active
[5]
  IC50: Not Active
[6]
  IC50: Not Active
  Ki: Not Active
[7]
  IC50: Not Active
[8]
  IC50: Not Active

## CO[C@H]1/C=C/O[C@@]2(C)Oc3c(C)c(O)c4c(O)c(c(/C=N/N5CCN(C)CC5)c(O)c4c3C2=O)NC(=O)/C(C)=C\C=C\[C@H](C)[C@H](O)[C@@H](C)[C@@H](O)[C@@H](C)[C@H](OC(C)=O)[C@@H]1C [RIFAMPIN]
[1]
  IC50: Not Active
[2]
  IC50: Not Active
[3]; cho
  IC50: Not Active
[4]
  IC50: Not Active
[5]
  IC50: Not Active
[6]
  IC50: Not Active
  Ki: Not Active
[7]
  IC50: Not Active
[8]
  IC50: Not Active

## Nc1nc2ccc(OC(F)(F)F)cc2s1 [RILUZOLE]
[1]
  IC50: Not Active
[2]
  IC50: Not Active
[3]; cho
  IC50: Not Active
[4]
  IC50: Not Active
[5]
  IC50: Not Active
[6]
  IC50: Not Active
  Ki: Not Active
[7]
  IC50: Not Active
[8]
  IC50: Not Active

## C=CCC1(C(C)CCC)C(=O)NC(=O)NC1=O (stereo not drawn) [SECOBARBITAL]
[1]
  IC50: Not Active
[2]
  IC50: Not Active
[3]; cho
  IC50: Not Active
[4]
  IC50: Not Active
[5]
  IC50: Not Active
[6]
  IC50: Not Active
  Ki: Not Active
[7]
  IC50: Not Active
[8]
  IC50: Not Active

## C[C@@H]1CN(c2c(F)c(N)c3c(=O)c(C(=O)O)cn(C4CC4)c3c2F)C[C@H](C)N1 [SPARFLOXACIN]
[1]
  IC50: Not Active
[2]
  IC50: Not Active
[3]; cho
  IC50: Not Active
[4]
  IC50: Not Active
[5]
  IC50: Not Active
[6]
  IC50: Not Active
  Ki: Not Active
[7]
  IC50: Not Active
[8]
  IC50: Not Active

## Cc1noc(NS(=O)(=O)c2ccc(N)cc2)c1C [SULFISOXAZOLE]
[1]
  IC50: Not Active
[2]
  IC50: Not Active
[3]; cho
  IC50: Not Active
[4]
  IC50: Not Active
[5]
  IC50: Not Active
[6]
  IC50: Not Active
  Ki: Not Active
[7]
  IC50: Not Active
[8]
  IC50: Not Active

## CSc1ccc(/C=C2/C(C)=C(CC(=O)O)c3cc(F)ccc32)cc1 [SULINDAC SULFIDE]
[1]
  IC50: Not Active
[2]
  IC50: Not Active
[3]; read-out: IC50
  IC50: 27.8 µM
[3]; read-out: Ki
  Ki: 13.9 µM
[4]
  IC50: Not Active
[5]
  IC50: Not Active
[6]
  IC50: Not Active
  Ki: Not Active
[7]
  IC50: Not Active
[8]
  IC50: Not Active

Reference: ChEMBL document CHEMBL1909046, “DrugMatrix in vitro pharmacology data”
